# Where two headings read alike, the source gives them in different places.
# Legend:
# [1] = Clinical chemistries in serum of rats; assay type: in vivo, male Sprague-Dawley rats; conditions: for response vs control in vivo at 0.3 % / response vs control in vivo at 0.1 %: po, 96 h
# Source text: (§1) A typical experiment consisted of 4-6 groups of rats (N=5 per group) with 1 group being a control which received no MDL compound and the other groups being treated with 0.3% MDL compound. Some of the compounds were either repeated at 0.3% or evaluated again at the lower dose of 0.1%. Male Sprague-Dawley rats, 50-100 g, (Harlan Laboratories, Indianapolis, Ind.) were housed in groups of 5, fed ad libitum water and Purina Rodent chow (#5002) with or without MDL compound as a dietary admixture for 4 days. Dietary admixtures (0.3%) were made by mixing 1.2 grams of an MDL compound with 400 grams of Purina rodent chow (#5002). The MDL compound was mixed with approximately 50 grams of food using a mortar and pestle. This was added to the remainder of the food and mixed for 3 hours on a rotary mixer. In the morning of day 5, non-fasted rats were anesthetized with carbon dioxide, and blood was collected by cardiac puncture. Rats were sacrificed by cervical dislocation. Body weights and liver weights were recorded in grams. Food consumption was recorded as grams.cndot.day^-1.cndot.rat^-1. Deaths were recorded as mortality. Aliquots of fresh serum were used for clinical chemistries, thiobarbituric acid reactive substances (TBARS) and conjugated diene measurements. Aliquots of serum (~0.5mL) and whole livers were frozen at -20° C. for compound and metabolite concentration determination at a later time.
# Blood was allowed to clot at room temperature for 30 minutes. Serum was obtained after centrifugation for 10 min at 4° C. at 3000 rpm in a Beckman J-6M/E centrifuge with a JS-4.2 rotor. Fresh serum was analyzed by a COBAS MIRA S autoanalyzer (Roche Diagnostics) using Roche diagnostic reagents for the following clinical chemistry measurements: alkaline phosphatase (ALP, kit #44553), alanine transaminase (ALT, kit #42375), aspartate aminotransferase (AST, kit #42381), total cholesterol (CHOL, kit #44334), triglyceride (TG, kit #44120), and glucose (GLU, kit #44558). ALP, ALT, and AST were calculated as units/L. Cholesterol, triglycerides, and glucose were calculated as mg/dL.
# [2] = HPLC quantitation of compound and metabolite concentration in rat serum and liver; assay type: in vivo, male Sprague-Dawley rats; conditions: 4 days; for concentration at 96 h: po
# Source text: as §1
# Serum and liver concentrations of parent compound and the metabolites, bisphenol and diphenoquinone, were determined by reverse phase HPLC using a Waters 990 Powerline system. Livers (1 gram samples) were homogenized with 5.0 mL PBS, pH 7.4, using a Polytron tissue homogenizer at setting 5 for 20-30 seconds. Serum or liver homogenates were extracted as follows: 100μL of either serum or homogenate were added to 2.0 mL diethyl ether:ethanol (3:1) while vortexing the tube. The sample tubes were capped and centrifuged for 10 min at 5° C. at 3500 rpm in a Beckman GPKR centrifuge with a GH 3.7 rotor. The supernatants were transferred to clean tubes and dried under N2. Samples were reconstituted with 200 μL of acetonitrile:hexane:0.1M ammonium acetate (90:6.5:3.5, by vol.). Then, 100 μL were injected onto a Waters Deltapak C18-300 Å column, and eluted with an 83% acetonitrile:17% water mobile phase at a flow rate of 1.5 mL/min. Absorbances at the wavelengths of 240, 254, and 420 nm were recorded. Compound concentrations were calculated from known quantities of authentic parent compounds after correction for recovery; the range of recovery from spiked samples was 40 to 100%. The lowest detectable limit for this class of compounds was ~0.5 μg/mL. […]. Concentrations were calculated as μg/mL of serum and μg/g of liver.
# [3] = Food consumption, body and liver weight in cholesterol-fed rabbits; assay type: in vivo, female New Zealand White rabbits; conditions: for body wt., percent of control / lw/bw (liver weight/body weight), percent of control: rabbit
# In short: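 Female New Zealand White rabbits fed 100 g/day of 0.2% cholesterol chow sprayed with compound (mostly 0.4%; some at 0.26% or 0.6%) from ethanol or diethyl ether:ethanol 3:2, for 7 days (14 days at 0.6%). Daily food intake, terminal body and liver weights recorded in grams.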
# [4] = test system: oxidation of lipids; assay: Conjugated diene determination, rat serum; assay type: in vivo, male Sprague-Dawley rats; conditions: pooled rat serum, diet 0.1%, 4 days, mean of 2 determinations
# Source text: as §1
# Conjugated diene lag phase is another indicator of the oxidation of lipids. Lipids exposed to Cu^++ form conjugated dienes that absorb ultraviolet light in the range of 230 to 235 nm. The lag phase of diene formation gives an indication of the amount of oxidation of the lipids. A lag phase longer than control samples indicate inhibition of the oxidation. Conjugated diene lay phase was determined using a Varian DMS200 spectrophotometer (fitted with a constant temperature, 5 cuvette sample changer) at 30° C. Twenty (20) μL of pooled serum were added to cuvettes containing 3.0 mL phosphate buffered saline, pH 7.5, and mixed. The absorbances of all cuvettes were measured, and the instrument baseline was set to zero using the lowest absorbing sample. Next, 100 μL of 1 mmol CuSO4 were added and immediately mixed. The absorbance of each cuvette was recorded at 2 min intervals for a period of 840 min. The data were captured and transferred to a Microsoft EXCEL® spreadsheet where the curves were smoothed and differentials obtained. Lag times were determined mathematically as minutes. Serum samples were pooled (N=5); data presented are the mean values of 2 determinations. Serum samples from treated rats were compared to serum samples from control rats that received no MDL compound.
# [5] = Rattus norvegicus, read-out: CHOL (total cholesterol), percent of control
# [6] = Rattus norvegicus, read-out: TRIG (triglycerides), percent of control
# [7] = rat serum, diet 0.3%, 4 days, read-out: CHOL (total cholesterol), percent of control
# [8] = rat serum, diet 0.3%, 4 days, read-out: TRIG (triglycerides), percent of control
# [9] = rat serum, diet 0.3%, read-out: Serum Parent = parent compound concentration
SMILES,"response vs control in vivo at 0.3 % [1, 5]","response vs control in vivo at 0.3 % [1, 6]","ALP (alkaline phosphatase), percent of control ([1]; rat serum, diet 0.3%, 4 days)","ALT (alanine aminotransferase), percent of control ([1]; rat serum, diet 0.3%, 4 days)","AST (aspartate aminotransferase), percent of control ([1]; rat serum, diet 0.3%, 4 days)","GLUC (glucose), percent of control ([1]; rat serum, diet 0.3%, 4 days)","Liver Parent = parent compound concentration ([2]; rat liver, diet 0.3%)","Serum Parent = parent compound concentration ([2]; rat serum, diet 0.3%)","response vs control in vivo at 0.3 % [1, 7]","response vs control in vivo at 0.3 % [1, 8]","concentration at 96 h [2, 9]",other results
"CC(C)(C)c1cc(OC[Si](C)(C)c2ccccc2)cc(C(C)(C)C)c1OC(=O)CCC(=O)O [MDL 103,076, 2,6-Di-t-butyl-4-[(dimethylphenylsilyl)methyloxy]phenol succinic acid ester]",114%,77%,201%,132%,99%,99%,0 µg/g,0 µg/mL,–,–,–,–
"CC(C)(C)c1cc(SC[Si](C)(C)c2ccccc2)cc(C(C)(C)C)c1OC(=O)CCC(=O)O [MDL 103,141, 2,6-Di-t-butyl-4-[(dimethylphenylsilyl)methylthio]phenol sucinic acid ester]",119%,47%,147%,126%,120%,107%,0 µg/g,0 µg/mL,–,–,–,–
"CC(=O)Oc1c(C(C)(C)C)cc(OC[Si](C)(C)c2ccccc2)cc1C(C)(C)C [MDL 103,377, 2,6-Di-t-butyl-4-[(dimethylphenylsilyl)methyloxy]phenol acetic acid ester]",–,–,147%,145%,149%,102%,–,–,93%,85%,7720 ng/mL,"concentration at 96 h ([2]; rat liver, diet 0.3%, read-out: Liver Parent = parent compound concentration): 22200 ng/g"
"CC(C)(C)c1cc(OC[Si](C)(C)c2ccccc2)ccc1O [MDL 103,491, 2-t-Butyl-4-[(dimethylphenylsilyl)methyloxy]phenol]",–,–,80%,127%,114%,94%,0 µg/g,–,146%,131%,3000 ng/mL,"food (grams eaten per day per rabbit), percent of control ([3]; diet 0.4%, 7 days): 100%; food (grams eaten per day per rabbit), percent of control ([3]; diet 0.6%, 14 days): 80%; body wt., percent of control ([3]; diet 0.4%, 7 days): 100%; lw/bw (liver weight/body weight), percent of control ([3]; diet 0.4%, 7 days): 89%; body wt., percent of control ([3]; diet 0.6%, 14 days): 95%; lw/bw (liver weight/body weight), percent of control ([3]; diet 0.6%, 14 days): 96%; response vs control in vivo at 0.1 % ([1]; rat serum, diet 0.1%, 4 days, read-out: CHOL (total cholesterol), percent of control): 112%; response vs control in vivo at 0.1 % ([1]; rat serum, diet 0.1%, 4 days, read-out: TRIG (triglycerides), percent of control): 92%; ALP (alkaline phosphatase), percent of control ([1]; rat serum, diet 0.1%, 4 days): 116%; ALT (alanine aminotransferase), percent of control ([1]; rat serum, diet 0.1%, 4 days): 133%; AST (aspartate aminotransferase), percent of control ([1]; rat serum, diet 0.1%, 4 days): 94%; GLUC (glucose), percent of control ([1]; rat serum, diet 0.1%, 4 days): 101%; CONJ. DIENE (conjugated diene lag phase) [4]: 168 min; Liver Parent = parent compound concentration ([2]; rat liver, diet 0.1%): 0 µg/g; Serum Parent = parent compound concentration ([2]; rat serum, diet 0.1%): 0 µg/mL"

# — patent publication US5608095A, “Alkyl-4-silyl-phenols and esters thereof as antiatherosclerotic agents” (Hoechst Marion Roussel, Inc., priority 1996, dated 1997)
